Measurements as given in US20260226026A1, “COMPOUND AS CTPS1 INHIBITOR” (Hangzhou Innogate Pharma Co., Ltd., priority 2023, published 2026).
Like-named read-outs stand apart in the source and are kept apart here.

What was measured:
Jurkat cells = experiment: Inhibition of Jurkat cell proliferation (CellTiter-Glo, 72 hours); type: cell-based; conditions: Homo sapiens
Method: Select Jurkat cells in good growth condition and digest them with trypsin. Add fresh culture medium, mix thoroughly, and centrifuge at 1000 rpm for 5 minutes. Seed the cells into a 96-well plate at a density of 10,000 cells per well, and incubate overnight in a 37° C. incubator. On the following day, take out of the culture plate and treat the cells with compounds prepared in a five-fold serial dilution. Return the plate to the 37° C. incubator and continue incubation for 72 hours.
After incubation, bring out the cell culture plate and equilibrate it to room temperature. Add 100 μL of CellTiter-Glo reagent to each well, shake in the dark for 2 minutes, and incubate for 10 minutes. Measure the luminescence using an Enspire plate reader. Calculate the inhibition rate using the following formula: Inhibition rate (%)=(1−(RLU_compound−RLU_blank)/(RLU_DMSO−RLU_blank))×100%. Plot the dose-response curve and calculate the IC50 value using XLFit.

hCTPS1 enzyme = biological target: T1, hCTPS1 enzyme (Homo sapiens, UniProt P17812); experiment: Inhibition of CTPS1 enzyme activity (ADP-Glo method); type: biochemical; conditions: hCTPS1, 90 min reaction at 25° C.
T1 sequence (P17812 1-591): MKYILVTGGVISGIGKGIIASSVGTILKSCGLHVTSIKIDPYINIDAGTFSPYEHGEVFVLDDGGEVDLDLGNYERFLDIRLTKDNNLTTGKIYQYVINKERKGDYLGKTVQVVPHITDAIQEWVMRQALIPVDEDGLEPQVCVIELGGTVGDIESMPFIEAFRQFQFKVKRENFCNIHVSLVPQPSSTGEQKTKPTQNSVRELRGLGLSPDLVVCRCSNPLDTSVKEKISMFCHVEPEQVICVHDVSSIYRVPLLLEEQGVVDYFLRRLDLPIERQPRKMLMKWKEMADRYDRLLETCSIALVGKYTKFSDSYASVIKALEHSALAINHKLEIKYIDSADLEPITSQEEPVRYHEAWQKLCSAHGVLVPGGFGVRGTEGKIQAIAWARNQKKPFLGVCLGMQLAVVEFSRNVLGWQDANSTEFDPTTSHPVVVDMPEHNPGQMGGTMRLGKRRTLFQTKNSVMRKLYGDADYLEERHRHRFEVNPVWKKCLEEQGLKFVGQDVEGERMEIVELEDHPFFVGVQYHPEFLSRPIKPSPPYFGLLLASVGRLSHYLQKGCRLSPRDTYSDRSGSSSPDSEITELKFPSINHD
Method: The enzyme activity of CTPS1 was tested using the ADP-Glo method. Compounds were serially diluted in DMSO with 3-fold gradients across ten concentrations. Transfer 0.1 μL of diluted compound to a 384-well plate, centrifuge at 1000 rpm for 1 min. Add 2.5 μL of hCTPS1 enzyme working solution, centrifuge at 1000 rpm for 1 min, and incubate at 25° C. for 10 min. Add 2.5 μL of ATP & UTP solution and incubate at 25° C. for 10 min. Add 5 μL of substrate solution to initiate the reaction and incubate at 25° C. for 90 min. Add 10 μL of ADP-Glo solution to the 384-well plate, centrifuge at 1000 rpm for 1 min, incubate at 25° C. for 40 min, add 20 μL of detection solution, centrifuge at 1000 rpm for 1 min, and incubate at 25° C. for 60 min. […] were read using a BMG microplate reader. Inhibition rate (%) was calculated as follows: Inhibition rate (%)=[(DMSO control well signal−Compound well signal)/(DMSO control well signal−Blank control well signal)]×100%. IC50 values for compounds were analyzed by nonlinear regression in XLFit 5.5.0 software using the formula: Y=Bottom+(Top−Bottom)/(1+10^((LogIC50−X)*HillSlope)) where Y is the inhibition rate and X is the log value of compound concentration.

in vivo = experiment: in vivo; parameters: species or system SD rats; conditions: male, SD, rat, po
Method: Instrumentation: SCIEX Triple Quad 6500+ triple quadrupole liquid chromatography-mass spectrometry system (LC-MS/MS), operating software is Analyst 1.7.2 (Applied Biosystems, USA); ExionLC liquid chromatography system; Microsoft Excel was used for data calculation and processing. Pharmacokinetic parameters were calculated using the statistical moment method with WinNonlin 8.2 software. Key kinetic parameters included Tmax, T1/2, Cmax, AUC0-24 h etc. Column: Synergi 4 μm Fusion-RP 80 Å Luna C18 2 mm*50 mm, 4 μm; Column temperature: 40° C.; Mobile phase A: Water (0.1% formic acid); Mobile phase B: Acetonitrile; Flow rate: 0.8 mL/min; Gradient elution is adopted, the elution gradient is 0.10 min: 15% B; 1.60 min: 95% B; 1.90 min: 95% B; 1.91 min: 15% B; 2.20 min: 15% B. Injection volume: 1 μL.
Animals: 3 male SD rats with a weight range of 200-220 g were purchased and kept in the laboratory of the Experimental Animal Center for 3 days and then used. They were fasted for 12 hours predose and 4 hours after dosing. Drinking water was free during the test. After the rats were gavage, blood samples were taken according to the established time point.
Solvent: 0.4% ethanol+0.4% Tween80+99.2% (0.5% methylcellulose M450). Preparation of the solution for intragastric administration: Compounds were accurately weighed and added to the solvent. The mixture was then subjected to vortex mixing and sonication until a homogeneous suspension was achieved, thereby preparing medicinal solutions of the desired concentrations.
Compound samples: Typically, multiple structurally analogous compounds (with molecular weights differing by more than 2 units) were accurately weighed and administered together (cassette PK). This approach allows for the simultaneous screening of multiple compounds and comparison of their oral absorption rates. Single compound administration was also employed to study the pharmacokinetics of drug samples in rats.
After intragastric administration, blood was collected from the jugular vein at 0.25, 0.5, 1, 2, 4, 8, 10 and 24 hours. Transfer 20 μL of plasma sample (for blank samples and internal standard blank samples, add 20 μL of blank plasma) to a 1.5 mL centrifuge tube, add 200 μL of internal standard solution (50% methanol in acetonitrile (concentration 100 ng/mL)) (for Double blank samples, add 200 μL of 50% methanol in acetonitrile solution). Vortex the samples for 5 minutes, then centrifuge at 14000 rpm and 4° C. for 5 minutes. Transfer 80 μL and add to 80 μL of water, mix uniformly, and submit for LC-MS/MS analysis.
The compounds were accurately weighed to prepare different concentrations, and quantitative analysis on mass spectrometry was performed to establish a standard curve, and then the concentration of the above-mentioned compound in the plasma was tested to obtain its concentration at different time points. All measurement data were collected and processed by relevant software, and the statistical moment method was used to calculate the pharmacokinetic parameters (mainly including kinetic parameters Tmax, T1/2, Cmax, AUC0-24 h etc).

[1] = Jurkat cells, 72 hours, CellTiter-Glo, read-out: Jurkat (IC50)

IC50 (Jurkat cells; [1]) [nM]	IC50 (hCTPS1 enzyme) [nM]	SMILES	also measured
< 30	< 25	CCOc1cncc(-c2ccc(NC(=O)C3(c4ccnc(NS(=O)(=O)C5CC5)n4)CCC(=CF)CC3)nc2)n1 (stereo not drawn) [Compound 10]	AUC(0-t) (in vivo; 3 mg/kg): 87200 ng·h/mL; Cmax (in vivo; 3 mg/kg): 9330 ng/mL; Tmax (in vivo; 3 mg/kg): 3.33 h; half-life (in vivo; 3 mg/kg): 4.95 h
< 15	< 50	CCOc1cncc(-c2ccc(NC(=O)C3(c4ccnc(NS(=O)(=O)C5CC5)n4)CCC(=C(F)CC4COC4)CC3)nc2)n1 (stereo not drawn) [Compound 69]	AUC(0-t) (in vivo; 2 mg/kg): 11300 ng·h/mL; Cmax (in vivo; 2 mg/kg): 2330 ng/mL; Tmax (in vivo; 2 mg/kg): 1.83 h; half-life (in vivo; 2 mg/kg): 1.89 h
< 15	< 25	CCOc1cncc(-c2ccc(NC(=O)C3(c4cncc(NS(=O)(=O)C5CC5)n4)CCC(=C(F)F)CC3)nc2)n1 (stereo not drawn) [Compound 68]	AUC(0-t) (in vivo; 3 mg/kg): 40800 ng·h/mL; Cmax (in vivo; 3 mg/kg): 6810 ng/mL; Tmax (in vivo; 3 mg/kg): 2.17 h; half-life (in vivo; 3 mg/kg): 1.83 h
< 15	< 25	CCOc1cncc(-c2ccc(NC(=O)C3(c4ccnc(NS(=O)(=O)C5CC5)n4)CCC(=C(F)C4COC4)CC3)nc2)n1 (stereo not drawn) [Compound 50]	AUC(0-t) (in vivo; 2 mg/kg): 2160 ng·h/mL; Cmax (in vivo; 2 mg/kg): 1020 ng/mL; Tmax (in vivo; 2 mg/kg): 0.25 h; half-life (in vivo; 2 mg/kg): 1.13 h
< 15	< 25	CCOc1cncc(-c2ccc(NC(=O)C3(c4ccnc(NS(=O)(=O)C5CC5)n4)CCC(=C(F)C4CCOCC4)CC3)nc2)n1 (stereo not drawn) [Compound 52]	AUC(0-t) (in vivo; 1.5 mg/kg): 7640 ng·h/mL; Cmax (in vivo; 1.5 mg/kg): 1210 ng/mL; Tmax (in vivo; 1.5 mg/kg): 2 h; half-life (in vivo; 1.5 mg/kg): 2.01 h
< 50	< 50	CCOc1cncc(-c2ccc(NC(=O)C3(c4ccnc(NS(=O)(=O)C5CC5)n4)CCC(=C(F)CC(C)(C)O)CC3)nc2)n1 (stereo not drawn) [Compound 67]	
< 30	< 50	C=CC(=O)N1CCC(C(=O)Nc2ccc(-c3cncc(OCC)n3)cn2)(c2ccnc(NS(=O)(=O)C3CC3)n2)CC1 [Compound 26]	AUC(0-t) (in vivo; 3 mg/kg): 288 ng·h/mL; Cmax (in vivo; 3 mg/kg): 118 ng/mL; Tmax (in vivo; 3 mg/kg): 0.5 h; half-life (in vivo; 3 mg/kg): 1.84 h
< 30	< 50	CCOc1cncc(-c2ccc(NC(=O)C3(c4ccnc(NS(=O)(=O)C5CC5)n4)CCC(=CCNC(C)=O)CC3)nc2)n1 (stereo not drawn) [Compound 22]	AUC(0-t) (in vivo; 3 mg/kg): 137 ng·h/mL; Cmax (in vivo; 3 mg/kg): 177 ng/mL; Tmax (in vivo; 3 mg/kg): 0.25 h; half-life (in vivo; 3 mg/kg): 1.64 h
< 50	< 50	CCOc1cncc(-c2ccc(NC(=O)C3(c4ccnc(NS(=O)(=O)C5CC5)n4)CCC(=CCN4CCN(C)CC4)CC3)nc2)n1 (stereo not drawn) [Compound 13]	
< 30	< 25	CCOc1cncc(-c2ccc(NC(=O)C3(c4ccnc(NS(=O)(=O)C5CC5)n4)CCC(=CCCOC)CC3)nc2)n1 (stereo not drawn) [Compound 45]	
< 30	< 100	CCOc1cncc(-c2ccc(NC(=O)C3(c4ccnc(NS(=O)(=O)C5CC5)n4)CC(=CC4CCOCC4)C3)nc2)n1 (stereo not drawn) [Compound 48]	
< 100	< 50	CCOc1cncc(-c2ccc(NC(=O)C3(c4ccnc(NS(=O)(=O)C5CC5)n4)CCC(=CCN4CC(O)C4)CC3)nc2)n1 (stereo not drawn) [Compound 27]	
< 30	< 100	CCOc1cncc(-c2ccc(NC(=O)C3(c4ccnc(NS(=O)(=O)C5CC5)n4)CCC(=CCN(C)CCOC)CC3)nc2)n1 (stereo not drawn) [Compound 29]	
< 30	< 50	CCOc1cncc(-c2ccc(NC(=O)C3(c4ccnc(NS(=O)(=O)C5CC5)n4)CC(=CC(=O)OC)C3)nc2)n1 (stereo not drawn) [Compound 14]	
< 50	< 50	CCOc1cncc(-c2ccc(NC(=O)C3(c4ccnc(NS(=O)(=O)C5CC5)n4)CCC(=CCNS(C)(=O)=O)CC3)nc2)n1 (stereo not drawn) [Compound 23]	
< 50	< 50	CCOc1cncc(-c2ccc(NC(=O)C3(c4ccnc(NS(=O)(=O)C5CC5)n4)CCC(=CCOC)CC3)nc2)n1 (single isomer, unassigned) [Compound 18]	
< 50	< 50	CCOc1cncc(-c2ccc(NC(=O)C3(c4ccnc(NS(=O)(=O)C5CC5)n4)CCC(=CCN4CCCC4)CC3)nc2)n1 (stereo not drawn) [Compound 16]	
< 50	< 25	CCOc1cncc(-c2ccc(NC(=O)C3(c4ccnc(NS(=O)(=O)C5CC5)n4)CCC(=Cc4cccnc4)CC3)nc2)n1 (stereo not drawn) [Compound 55]	
< 15	< 25	CCOc1cncc(-c2ccc(NC(=O)C3(c4ccnc(NS(=O)(=O)C5CC5)n4)CCC(=CCN4CCOCC4)CC3)nc2)n1 (stereo not drawn) [Compound 11]	
< 15	< 25	CCOc1cncc(-c2ccc(NC(=O)C3(c4ccnc(NS(=O)(=O)C5CC5)n4)CCC(=CC4(C)COC4)CC3)nc2)n1 (stereo not drawn) [Compound 62]	

SMILES	IC50 (Jurkat cells; [1]) [nM]	IC50 (hCTPS1 enzyme) [nM]	also measured
CCOc1cncc(-c2ccc(NC(=O)C3(c4ccnc(NS(=O)(=O)C5CC5)n4)CCC(=C(F)F)CC3)nc2)n1 (stereo not drawn) [Compound 1]	< 30	< 25	AUC(0-t) (in vivo; 3 mg/kg): 68800 ng·h/mL; Cmax (in vivo; 3 mg/kg): 11300 ng/mL; Tmax (in vivo; 3 mg/kg): 0.83 h; half-life (in vivo; 3 mg/kg): 4.98 h
CCOc1cncc(-c2ccc(NC(=O)C3(c4ccnc(NS(=O)(=O)C5CC5)n4)CCC(=CCN(C)C)CC3)nc2)n1 (stereo not drawn) [Compound 15]		< 100	IC50 (Jurkat cells; Jurkat, 72 h, read-out: Jurkat (IC50, nM)): < 50 nM
CCOc1cncc(-c2ccc(NC(=O)C3(c4ccnc(NS(=O)(=O)C5CC5)n4)CCC(=CC4CCOCC4)CC3)nc2)n1 (stereo not drawn) [Compound 32]	< 15	< 25	AUC(0-t) (in vivo; 3 mg/kg): 15700 ng·h/mL; Cmax (in vivo; 3 mg/kg): 4020 ng/mL; Tmax (in vivo; 3 mg/kg): 0.83 h; half-life (in vivo; 3 mg/kg): 1.34 h
CCOc1cncc(-c2ccc(NC(=O)C3(c4ccnc(NS(=O)(=O)C5CC5)n4)CCN(C4CC(=C(F)F)C4)CC3)nc2)n1 (stereo not drawn) [Compound 31]	< 50	< 100	
